Series [1] has as its system X. fastidiosa Temecula 1 in V. vinifera cv. Carignane. It counts as in vivo, Vitis vinifera. As to conditions: for leaves with PD symptoms: at the end of 3 months, untreated nearly 100%; for progression of PD symptoms: in vivo.
For series [2], the system named is grapevine leaves (V. vinifera cv. Carignane).
The test system is the same in series [3]. The series can be described thus: Leaf disc phytotoxicity, chlorophyll loss.
Series [4] relates to grapevines. The series can be described thus: Visible phytotoxicity in greenhouse after foliar spray or soil drench.
For series [5], the system named is Xylella fastidiosa strain Temecula-1 (PDT). The series can be described thus: microbe, parasite or virus in culture. It counts as cell-based. As to conditions: for inhibition / inhibition at 25 µM: 25 uM; for inhibition at 25 µM / inhibition at 50 µM: Xylella fastidiosa; for inhibition at 50 µM: 48 h, read-out: growth inhibition of Temecula1, 50 μM, 48 hrs, relative to untreated control.

The subject of series [6] is Xf PD strain in V. vinifera grapevines. Set-up: species or system Vitis vinifera. The note with it: in vivo.
The subject of series [7] is Ca. Liberibacter asiaticus (Las). The format is in vivo, C. sinensis. As to conditions: soil drench 1 g/tree, Hamlins, as early as 20 days post treatment.
For series [8] the test system is unchanged. It counts as in vivo, C. paradisi. As to conditions: soil drench 15 g/tree, grapefruits, as early as 20 days post treatment.

The inhibition is how much of the control response was suppressed.

Read-outs that look alike come from different tables or passages of the source.

On to `CC(C)(C)CC(C)(C)c1ccc(OCCOCC[N+](C)(C)Cc2ccccc2)cc1` [Benzethonium chloride], for which, in series [1], the “leaves with PD symptoms” value is recorded as ~50%. For the same compound, the “progression of PD symptoms” value in series [1] was “significantly reduced as well as delayed progression of PD symptoms”. Also, the “loss in chlorophyll content” value in series [2] was “increasingly significant loss in chlorophyll content”. The “phytotoxicity in the chlorophyll degradation assay” value in series [3] (25 mM) was “no appreciable phytotoxicity”. Besides, the visible phytotoxicity entry in series [4] (foliar sprays) and in series [4] (soil drench) was “not evident” in each case.
Regarding `Cc1nccc2c(C)c3[nH]c4ccccc4c3cc12` [olivacine], the inhibition in series [5] is reported as 100%.
In the case of `CC1=CC(=O)c2ccccc2C1=O` [menadione, 2-methyl-1,4-naphthoquinone], in series [5], the inhibition at 25 µM was found to be 100% and the inhibition at 50 µM is > 90%. For the same compound, in series [1], the “leaves with PD symptoms” value is ~50% and the “progression of PD symptoms” value is “significantly reduced as well as delayed progression of PD symptoms”. Moreover, the “control of the progression of PD in field conditions” value in series [6] is on record as “Effective”. Further, in series [7], the “Las metabolic activity (peroxidase gene expression relative to EF1 alpha)” value is “measureable suppression of Las metabolic activity”. The “Las metabolic activity (peroxidase gene expression relative to EF1 alpha)” value in series [8] is reported as “measureable suppression of Las metabolic activity”. Further, the “loss in total chlorophyll content” value in series [3] (grapevine leaf discs, within 48 hours, all concentrations tested (as low as 25 mM), vs water-treated control) is recorded as ~40%. In series [4] (foliar sprays), the visible phytotoxicity result is “sporadic patches of purple pigmentation and necrosis”. Also, in series [4] (soil drench), the visible phytotoxicity result was “not evident”.
`Cc1cc2c(C(C)C)c(O)c(O)c(C=O)c2c(O)c1-c1c(C)cc2c(C(C)C)c(O)c(O)c(C=O)c2c1O` [gossypol]: the inhibition at 50 µM in series [5] is > 90%.
As to `COc1ccc2[nH]c3c(C)c4ccncc4c(C)c3c2c1` [9-methoxyellipticine], the inhibition in series [5] was 100%.
Same read-out and setting: to `Cc1cc2nc3c(=O)[nH]c(=O)nc-3n(C[C@H](O)[C@H](O)[C@H](O)CO)c2cc1N(C)C` [roseoflavin] belongs 100%.
As to `CC(Cc1ccc(O)c(O)c1)C(C)Cc1ccc(O)c(O)c1` (centres unmarked) [4,4′-(2,3 dimethyltetramethylene) dipyrocatechol], in series [5], at 25 µM the inhibition was 100% and the inhibition at 50 µM is > 90%.
For `CC(=O)Oc1ccccc1C(=O)Nc1ncc([N+](=O)[O-])s1` [Nitazoxanide], 25 µM produced 100% inhibition in series [5].

Source of the values: patent publication US20210219549A1 (priority 2018, published 2021).
